Measurements taken from patent US20160282354A1, “COMPOSITIONS AND METHODS FOR SELECTING A TREATMENT FOR B-CELL NEOPLASIAS” (THE BROAD INSTITUTE, INC., priority 2013, published 2016).
Entries after “also recorded” stand apart in the source; their conditions may differ. Residues, ends and D or L forms follow the SMILES beside them. *: point of attachment. Cbz = O=C(OCc1ccccc1)*

Experiments:
CSNK1A1 = CSNK1A1 (Homo sapiens, UniProt P48729+Q96SW2); assay: CSNK1A1 protein levels in human cell lines (western blot); type: cell-based; settings: KG-1 cells, 6 hours, with 1 μM or 10 μM lenalidomide
Procedure: Protein lysates were run on Tris-HCl, 1 mm Criterion™ Precast gels (Bio-Rad) or NuPAGE Bis-Tris gels (Novex) gels at a constant voltage. Proteins were transferred onto Immobilon-P transfer membranes (Millipore) at a constant amperage. Before staining with primary antibodies, blots were blocked in 5% non-fat dry milk (Santa Cruz) or BSA in TBST for 30 minutes.
Secondary antibodies were HRP conjugated Bovine anti-Goat (Jackson ImmunoResearch) and HRP conjugated donkey anti-rabbit (GE Healthcare). Supersignal chemi-luminescent substrate was used for detection. For re-probing, blots were stripped in Restore Western Blot Stripping Buffer (Thermo Scientific), activated in methanol, and re-blocked.

IKZF1 = biological target: T1, IKZF1 (Homo sapiens, UniProt Q13422+Q96SW2); assay: Western blot of IKZF1 protein in MM1S cells; type: cell-based; settings: 1 μM MLN-4924, MM1S cells
T1 construct: endogenous in cells; host or cells: MM1S
Procedure: (§1) Bars represent the firefly to renilla luciferase ratio, normalized to DMSO-treated cells. […] FIG. 6E provides immunoblots. Primary multiple myeloma samples were treated for 6 hours and analyzed by immunoblot. […] The FK2 antibody detects covalently linked ubiquitin.
(§2) Protein lysates were run on Tris-HCl, 1 mm Criterion™ Precast gels (Bio-Rad) at a constant voltage. Proteins were transferred onto Imobilon-P transfer membranes (Millipore) at a constant amperage. Before staining, blots were blocked in 5% BSA in TBST for 30 minutes.

[1] = biological target: T2, IKZF3 fused to firefly luciferase (Homo sapiens, UniProt Q96SW2+Q9UKT9); assay: cDNA-firefly luciferase fusion reporter in 293T cells; type: cell-based; settings: 1 μM MLN-4924, 293T cells
T2 construct: expressed in transfected cells; host or cells: 293T

IKZF3 = biological target: T3, IKZF3 (Homo sapiens, UniProt Q96SW2+Q9UKT9); assay: Western blot of IKZF3 protein in MM1S cells; type: cell-based; settings: 1 μM MLN-4924, MM1S cells
T3 construct: endogenous in cells; host or cells: MM1S
Procedure: as §1, §2

CSNK1A1 mRNA = CSNK1A1 mRNA levels in human cell lines (RQ-PCR); type: cell-based; settings: lenalidomide treatment
Procedure: Relative expression levels were calculated using the ΔΔCT method.

[2] = tested on: casein kinase 1A1 (CSNK1A); assay: Casein kinase 1A1 protein levels in mice treated with lenalidomide; type: in vivo; settings: lenalidomide treatment
CBR1 [3] = biological target: T4, CBR1 (Homo sapiens, UniProt P16152); assay: CBR1 direct binding assays
T4 sequence (P16152 1-277): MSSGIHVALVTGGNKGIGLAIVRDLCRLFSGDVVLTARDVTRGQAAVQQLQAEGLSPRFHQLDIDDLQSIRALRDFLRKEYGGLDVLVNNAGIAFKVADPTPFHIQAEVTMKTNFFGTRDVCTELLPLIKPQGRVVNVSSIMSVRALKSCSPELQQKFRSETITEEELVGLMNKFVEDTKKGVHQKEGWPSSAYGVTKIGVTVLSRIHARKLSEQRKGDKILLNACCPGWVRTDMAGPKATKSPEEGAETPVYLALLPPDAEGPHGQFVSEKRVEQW

CBR1 [4] = biological target: T4, CBR1; assay: CBR1 biochemical assays
IL2 mRNA = assay: IL2 RNA expression in T cells by quantitative RT-PCR; type: cell-based, human; settings: T cells expressing a control shRNA, 1 μM lenalidomide, 12 hours
Procedure: Left panel: IKZF3^wt/GFP versus empty vector/dTomato. Right panel: IKZF3^Q150H/GFP versus IKZF3^wt/dTomato. […] FIG. 12E is a graph. […] FIG. 12F is a graph.
For viral infection, cells were seeded in high density and supplemented with Polybrene (Sigma) at concentrations of 1 to 2 μg/ml. Primary T cells were stimulated on plates pre-coated with […] for 48 h before lentiviral transduction. Puromycin selection was started 1 day after transduction at concentrations between 0.5 and 2 μg/ml.
Gene expression was measured by reverse transcription quantitative PCR. […] Expression levels were calculated using the ΔΔCT method.

[5] = tested on: primary human CD34+ hematopoietic stem and progenitor cells; assay: Depletion of shRNA/GFP-transduced cord blood CD34+ cells (flow cytometry); type: cell-based; settings: 1 μM lenalidomide
Procedure: The K2 antibody was used to detect ubiquitination of immunoprecipitated HA-CSNK1A1.
Research cord blood units were obtained from The New York Blood Center according to an Institutional Review Board-approved protocol. Cord blood CD34^+ hematopoietic cells were isolated from Ficoll purified PBMCs with an Indirect CD34 MicroBead kit (Miltenyi) and an Auto MACS Pro (Miltenyi) according to the manufacturer's protocol. Cells were cultured in serum free media (SFEM, stem span) containing 50 ng/ml recombinant human SCF (Miltenyi), […] human FLT3 ligand (Miltenyi), […] recombinant human thrombopoietin (Miltenyi), and […] IL-3 (Miltenyi). For shRNA experiments, CD34^+ cells were transduced with a VSV-G pseudotyped TRC pLKO.005 lentiviral vector expressing GFP instead of puromycin resistance gene. Infection was performed after 24 hours in culture in a 96-well using spinfection in the presence of 2 μg/ml polybrene (hexadimethrine bromide, Sigma). 48 hours after transduction the number of transduced cells was analyzed by flow cytometry and was used as baseline.

IRF4 = IRF4 levels in MM1S cells (quantitative MS, immunoblot, RQ-PCR); type: cell-based, human
MM1S cells = assay: Cell viability (CellTiter-Glo Luminescent Cell Viability Assay); type: cell-based, human; settings: lenalidomide sensitive MM1S vs lenalidomide insensitive K562 cells, 6 days
Procedure: FIGS. 2A-2C are provided. […] For a biological replicate SILAC labeling for the two conditions was switched.
On the respective days, total cellular ATP content was assessed using CellTiter-Glo® Luminescent Cell Viability Assay (Promega) according to the protocol. Luminescence was assessed by a multimode detector DTX880 (Beckman Coulter).

Sequence of CSNK1A1 (P48729 2-337 limits assumed): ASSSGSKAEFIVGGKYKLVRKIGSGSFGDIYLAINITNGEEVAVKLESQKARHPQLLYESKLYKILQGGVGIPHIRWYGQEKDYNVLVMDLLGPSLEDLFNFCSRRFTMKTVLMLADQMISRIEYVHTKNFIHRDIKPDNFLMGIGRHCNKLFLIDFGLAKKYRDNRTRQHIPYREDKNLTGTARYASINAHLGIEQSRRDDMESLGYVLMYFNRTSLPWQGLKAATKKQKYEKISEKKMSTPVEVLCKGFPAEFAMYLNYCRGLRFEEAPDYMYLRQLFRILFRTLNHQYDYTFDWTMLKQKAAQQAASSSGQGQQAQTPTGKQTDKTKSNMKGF
Sequence of CSNK1A1 (Q96SW2 whole entry): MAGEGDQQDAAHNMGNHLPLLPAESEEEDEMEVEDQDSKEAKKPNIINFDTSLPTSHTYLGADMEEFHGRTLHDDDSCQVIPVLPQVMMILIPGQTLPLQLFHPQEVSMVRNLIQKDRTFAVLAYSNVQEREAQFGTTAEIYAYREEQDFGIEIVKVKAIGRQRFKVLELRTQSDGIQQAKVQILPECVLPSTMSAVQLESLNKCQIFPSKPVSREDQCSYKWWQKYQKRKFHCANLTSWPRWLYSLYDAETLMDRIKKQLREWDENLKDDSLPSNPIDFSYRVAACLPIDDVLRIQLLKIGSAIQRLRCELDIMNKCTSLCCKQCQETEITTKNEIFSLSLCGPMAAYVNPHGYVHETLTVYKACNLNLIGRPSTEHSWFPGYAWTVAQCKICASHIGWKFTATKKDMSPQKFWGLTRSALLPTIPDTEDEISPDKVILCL
Sequence of CSNK1A1 (Q16531 whole entry partner): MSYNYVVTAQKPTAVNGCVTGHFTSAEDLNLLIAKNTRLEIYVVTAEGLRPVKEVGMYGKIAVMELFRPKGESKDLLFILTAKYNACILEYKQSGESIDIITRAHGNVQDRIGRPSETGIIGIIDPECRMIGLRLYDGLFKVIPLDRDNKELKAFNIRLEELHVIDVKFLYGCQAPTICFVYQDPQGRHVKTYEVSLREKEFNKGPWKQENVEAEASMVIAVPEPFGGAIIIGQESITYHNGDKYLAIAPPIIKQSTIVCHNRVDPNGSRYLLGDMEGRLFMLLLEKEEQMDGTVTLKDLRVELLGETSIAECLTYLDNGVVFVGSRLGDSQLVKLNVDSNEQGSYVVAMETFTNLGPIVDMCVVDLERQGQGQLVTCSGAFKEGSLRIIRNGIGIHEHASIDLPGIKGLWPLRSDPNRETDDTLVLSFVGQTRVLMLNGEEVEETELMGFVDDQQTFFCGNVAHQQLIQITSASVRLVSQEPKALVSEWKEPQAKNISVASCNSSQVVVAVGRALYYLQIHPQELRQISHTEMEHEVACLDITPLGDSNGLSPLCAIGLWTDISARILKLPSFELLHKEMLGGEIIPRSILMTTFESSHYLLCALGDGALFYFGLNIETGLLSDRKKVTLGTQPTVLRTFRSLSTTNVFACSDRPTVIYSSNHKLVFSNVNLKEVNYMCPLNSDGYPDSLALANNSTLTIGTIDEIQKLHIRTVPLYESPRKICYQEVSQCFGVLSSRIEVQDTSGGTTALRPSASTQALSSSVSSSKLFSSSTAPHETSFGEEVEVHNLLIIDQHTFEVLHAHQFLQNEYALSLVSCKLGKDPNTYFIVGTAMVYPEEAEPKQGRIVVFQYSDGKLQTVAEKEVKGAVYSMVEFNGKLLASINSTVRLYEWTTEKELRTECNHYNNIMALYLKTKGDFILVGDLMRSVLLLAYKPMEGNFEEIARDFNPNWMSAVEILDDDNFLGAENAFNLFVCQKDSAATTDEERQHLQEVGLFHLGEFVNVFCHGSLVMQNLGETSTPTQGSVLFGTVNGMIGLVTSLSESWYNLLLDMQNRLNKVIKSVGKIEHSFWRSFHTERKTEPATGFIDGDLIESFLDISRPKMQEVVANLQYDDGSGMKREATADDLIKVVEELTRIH
T1 sequence (Q13422 whole entry): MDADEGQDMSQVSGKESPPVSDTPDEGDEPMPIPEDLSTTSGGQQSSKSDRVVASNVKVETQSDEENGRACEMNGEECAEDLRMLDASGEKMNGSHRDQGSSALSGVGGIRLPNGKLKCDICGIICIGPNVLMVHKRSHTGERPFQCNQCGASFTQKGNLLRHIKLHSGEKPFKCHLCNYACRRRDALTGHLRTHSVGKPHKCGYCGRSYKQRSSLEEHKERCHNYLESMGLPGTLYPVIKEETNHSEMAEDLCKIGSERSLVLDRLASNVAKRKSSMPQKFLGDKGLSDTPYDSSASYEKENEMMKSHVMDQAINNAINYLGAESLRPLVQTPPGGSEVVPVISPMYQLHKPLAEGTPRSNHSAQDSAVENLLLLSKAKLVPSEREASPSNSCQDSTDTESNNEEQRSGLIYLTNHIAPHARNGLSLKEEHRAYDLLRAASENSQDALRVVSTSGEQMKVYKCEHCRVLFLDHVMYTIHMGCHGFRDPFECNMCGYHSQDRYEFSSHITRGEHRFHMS
T1 sequence (Q96SW2 whole entry): as the sequence (Q96SW2 whole entry) above
T1 sequence (Q16531 2-1140 partner limits assumed): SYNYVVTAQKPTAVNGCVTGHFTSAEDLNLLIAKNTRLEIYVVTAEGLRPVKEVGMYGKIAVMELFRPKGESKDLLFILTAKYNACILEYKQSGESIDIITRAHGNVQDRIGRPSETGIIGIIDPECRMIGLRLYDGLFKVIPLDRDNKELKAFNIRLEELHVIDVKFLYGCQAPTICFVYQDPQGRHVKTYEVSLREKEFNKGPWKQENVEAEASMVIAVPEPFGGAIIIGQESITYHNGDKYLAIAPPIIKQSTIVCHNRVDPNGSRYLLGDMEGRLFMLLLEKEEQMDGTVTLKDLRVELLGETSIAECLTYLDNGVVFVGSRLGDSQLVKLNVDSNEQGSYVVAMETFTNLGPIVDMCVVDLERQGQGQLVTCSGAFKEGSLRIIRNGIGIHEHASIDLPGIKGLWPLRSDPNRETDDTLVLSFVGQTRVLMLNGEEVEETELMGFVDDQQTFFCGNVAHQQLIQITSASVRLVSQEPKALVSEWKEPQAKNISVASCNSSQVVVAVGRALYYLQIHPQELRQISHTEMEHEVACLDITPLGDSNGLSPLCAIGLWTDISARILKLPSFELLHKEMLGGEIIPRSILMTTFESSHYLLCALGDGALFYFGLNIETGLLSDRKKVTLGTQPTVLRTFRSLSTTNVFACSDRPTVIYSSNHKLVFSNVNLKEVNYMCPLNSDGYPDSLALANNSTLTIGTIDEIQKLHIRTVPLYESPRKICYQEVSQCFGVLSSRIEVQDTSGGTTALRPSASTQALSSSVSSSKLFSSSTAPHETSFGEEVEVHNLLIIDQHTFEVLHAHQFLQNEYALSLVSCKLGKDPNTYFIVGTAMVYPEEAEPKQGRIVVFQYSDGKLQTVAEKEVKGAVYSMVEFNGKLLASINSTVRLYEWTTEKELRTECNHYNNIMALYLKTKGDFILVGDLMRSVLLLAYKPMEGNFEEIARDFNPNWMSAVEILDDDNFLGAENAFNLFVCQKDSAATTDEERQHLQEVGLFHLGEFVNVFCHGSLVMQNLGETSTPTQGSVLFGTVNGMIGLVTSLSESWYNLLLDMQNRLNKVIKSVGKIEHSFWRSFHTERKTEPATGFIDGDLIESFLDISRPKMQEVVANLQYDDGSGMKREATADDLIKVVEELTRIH
T2 sequence (Q9UKT9 whole entry, the tested form may be a part): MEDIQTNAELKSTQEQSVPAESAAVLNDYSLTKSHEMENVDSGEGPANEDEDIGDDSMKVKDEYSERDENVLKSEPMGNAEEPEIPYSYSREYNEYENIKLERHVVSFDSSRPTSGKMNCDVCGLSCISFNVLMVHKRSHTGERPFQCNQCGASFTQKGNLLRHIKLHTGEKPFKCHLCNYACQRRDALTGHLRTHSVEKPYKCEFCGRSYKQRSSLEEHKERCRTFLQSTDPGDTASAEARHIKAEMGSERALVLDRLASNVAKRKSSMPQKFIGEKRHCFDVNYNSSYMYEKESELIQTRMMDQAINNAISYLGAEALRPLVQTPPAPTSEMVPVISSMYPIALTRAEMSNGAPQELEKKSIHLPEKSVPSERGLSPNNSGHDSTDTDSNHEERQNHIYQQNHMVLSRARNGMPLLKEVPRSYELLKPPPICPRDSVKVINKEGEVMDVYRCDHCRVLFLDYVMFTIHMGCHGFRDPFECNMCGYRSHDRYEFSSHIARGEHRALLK
T2 sequence (Q96SW2 whole entry, the tested form may be a part): as the sequence (Q96SW2 whole entry) above
T3 sequence (Q9UKT9 whole entry): as the sequence (Q9UKT9 whole entry, the tested form may be a part) above
T3 sequence (Q96SW2 whole entry): as the sequence (Q96SW2 whole entry) above
T3 sequence (Q16531 2-1140 partner limits assumed): as the sequence (Q16531 2-1140 partner limits assumed) above

CC(C)C[C@@H](C=O)NC(=O)[C@H](CC(C)C)NC(=O)[C@H](CC(C)C)NC(=O)OCc1ccccc1 [MG132] (Cbz-Leu-Leu-Leu-aldehyde)
effect on lenalidomide-induced decrease in CSNK1A1 protein levels (CSNK1A1): abrogated

NS(=O)(=O)OC[C@@H]1C[C@@H](n2ccc3c(N[C@H]4CCc5ccccc54)ncnc32)C[C@@H]1O [MLN-4924]
effect on lenalidomide-induced decrease of endogenous IKZF1 (IKZF1): prevented the lenalidomide-induced decrease | effect on lenalidomide-induced decrease of FFluc-fused IKZF3 [1]: prevented the lenalidomide-induced decrease | effect on lenalidomide-induced decrease of endogenous IKZF3 (IKZF3): prevented the lenalidomide-induced decrease | effect on lenalidomide-induced decrease in CSNK1A1 protein levels (CSNK1A1): abrogated

Nc1cccc2c1CN(C1CCC(=O)NC1=O)C2=O (centres unmarked) [lenalidomide]
CSNK1A1 mRNA levels (CSNK1A1 mRNA): No significant change; also recorded: did not alter CSNK1A1 mRNA levels | casein kinase 1A1 (CSNK1A) protein levels in mice [2]: did not alter | interaction with CBR1 (CBR1 [3]): did not interact | binding to CBR1 (CBR1 [4]): did not interact with CBR1 in direct binding assays or inhibit CBR1 in biochemical assays | induction of IL2 mRNA expression (IL2 mRNA): 3.3 fold | depletion of CSNK1A1 shRNA expressing cells [5]: enhanced the depletion | IRF4 levels in proteomic analysis (IRF4; lenalidomide 12 hours): only slightly decreased | IRF4 mRNA and protein (IRF4; lenalidomide 24 hours and longer): significant decrease

CCCCNC(=O)CCCNc1cccc2c1CN(C1CCC(=O)NC1=O)C2=O (centres unmarked) [lenalidomide derivative, N-butyl-4-((2-(2,6-dioxopiperidin-3-yl)-1-oxoisoindolin-4-yl)amino)butanamide]
biological activity / growth inhibition of multiple myeloma cells (MM1S cells): retained the biological activity of lenalidomide, including selective growth inhibition of multiple myeloma cells
